Experimental data taken from patent publication US20250250230A1, “HETEROCYCLIC COMPOUND” (TAKEDA PHARMACEUTICAL COMPANY LIMITED, priority 2022, published 2025).

Target: T1, human orexin type 2 receptor (Homo sapiens, UniProt O43614)
T1 construct: expressed in transfected cells
T1 sequence (O43614 1-444): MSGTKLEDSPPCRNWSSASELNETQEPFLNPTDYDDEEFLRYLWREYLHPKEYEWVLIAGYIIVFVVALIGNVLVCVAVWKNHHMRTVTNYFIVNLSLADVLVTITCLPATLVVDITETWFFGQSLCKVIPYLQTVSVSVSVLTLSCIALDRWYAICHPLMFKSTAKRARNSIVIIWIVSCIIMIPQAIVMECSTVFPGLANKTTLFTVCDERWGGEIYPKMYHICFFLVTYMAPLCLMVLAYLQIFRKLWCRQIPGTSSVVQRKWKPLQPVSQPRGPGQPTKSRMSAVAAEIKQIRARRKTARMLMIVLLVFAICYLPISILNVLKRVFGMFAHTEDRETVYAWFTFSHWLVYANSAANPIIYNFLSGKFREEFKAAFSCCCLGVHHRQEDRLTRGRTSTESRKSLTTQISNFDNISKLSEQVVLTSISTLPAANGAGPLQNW
Assay: Measurement of orexin type 2 receptor agonist activity (calcium fluorescence, Fluo-4 AM, FDSS)
Format: cell-based
Conditions: test compound 3 μM; CHO cells expressing human OX2 receptor; DMSO = 0%, orexin A (human) = 100%
How it was run: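 Agonist response scaled between vehicle (0%) and human orexin A at 10 nM final (100%), from 2-min kinetic Fluo-4 fluorescence reads. Stable hOX2R CHO-K1 clone, dye-loaded in HBSS/20 mM HEPES/0.1% BSA with 1.25 mM probenecid before compound addition.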

SMILES | OX2R agonist activity (3 μM, %) [%]
CS(=O)(=O)NC[C@@H]1[C@H](F)CN1C(=O)[C@@H]1C[C@@]1(F)c1ccc(F)cc1-c1c(F)cccc1F [Example 413, N-({(2R,3R)-3-fluoro-1-[(1S,2S)-2-fluoro-2-(2′,5,6′-trifluoro[1,1′-biphenyl]-2-yl)cyclopropane-1-carbonyl]azetidin-2-yl}methyl)methanesulfonamide] | 109
CC(C)S(=O)(=O)NC[C@@H]1[C@H](F)CN1C(=O)[C@@H]1C[C@@]1(F)c1ccc(F)cc1-c1c(F)cccc1F [Example 444, N-({(2R,3R)-3-fluoro-1-[(1S,2S)-2-fluoro-2-(2′,5,6′-trifluoro[1,1′-biphenyl]-2-yl)cyclopropane-1-carbonyl]azetidin-2-yl}methyl)propane-2-sulfonamide] | 96
CS(=O)(=O)NCC1N(C(=O)[C@@H]2C[C@@]2(F)c2ccccc2-c2c(F)cccc2F)CC1(F)F (stereo partly drawn) [Example 409, N-({(2R)-1-[(1S,2S)-2-(2′,6′-difluoro[1,1′-biphenyl]-2-yl)-2-fluorocyclopropane-1-carbonyl]-3,3-difluoroazetidin-2-yl}methyl)methanesulfonamide, or N-({(2S)-1-[(1S,2S)-2-(2′,6′-difluoro[1,1′-biphenyl]-2-yl)-2-fluorocyclopropane-1-carbonyl]-3,3-difluoroazetidin-2-yl}methyl)methanesulfonamide] | 100
CC1(C(=O)N2CC(NS(C)(=O)=O)C(F)(F)C2)CC1c1ccccc1-c1c(F)cccc1F (stereo not drawn) [Example 248, N-{1-[2-(2′,6′-difluoro[1,1′-biphenyl]-2-yl)-1-methylcyclopropane-1-carbonyl]-4,4-difluoropyrrolidin-3-yl}methanesulfonamide optical isomer] | 98
CCS(=O)(=O)NC[C@@H]1[C@H](F)CN1C(=O)C1CC1(F)c1ccccc1-c1ccccc1Cl (stereo partly drawn) [Example 441, N-({(2R,3R)-1-[(1R,2R)-2-(2′-chloro[1,1′-biphenyl]-2-yl)-2-fluorocyclopropane-1-carbonyl]-3-fluoroazetidin-2-yl}methyl)ethanesulfonamide, or N-({(2R,3R)-1-[(1S,2S)-2-(2′-chloro[1,1′-biphenyl]-2-yl)-2-fluorocyclopropane-1-carbonyl]-3-fluoroazetidin-2-yl}methyl)ethanesulfonamide] | 90
Cc1cc(-c2c(F)cccc2F)c(C2CC2C(=O)N2CCCC(NS(C)(=O)=O)C2)cn1 (racemic) [Example 267, a mixture of rac-N-[(3R)-1-{(1R,2R)-2-[4-(2,6-difluorophenyl)-6-methylpyridin-3-yl]cyclopropane-1-carbonyl}piperidin-3-yl]methanesulfonamide and rac-N-[(3S)-1-{(1R,2R)-2-[4-(2,6-difluorophenyl)-6-methylpyridin-3-yl]cyclopropane-1-carbonyl}piperidin-3-yl]methanesulfonamide] | 87
CN(C)S(=O)(=O)NC[C@@H]1[C@H](F)CN1C(=O)[C@@H]1C[C@@]1(F)c1ccc(F)cc1-c1c(F)cccc1F [Example 424, N′-({(2R,3R)-3-fluoro-1-[(1S,2S)-2-fluoro-2-(2′,5,6′-trifluoro[1,1′-biphenyl]-2-yl)cyclopropane-1-carbonyl]azetidin-2-yl}methyl)-N,N-dimethylsulfuric diamide] | 98

The remaining lines, values ahead:

OX2R agonist activity (3 μM, %) [%] | SMILES
80 | CS(=O)(=O)NC1CCN(C(=O)C2CC2c2ccccc2-c2ccc(F)cc2F)C1 (racemic) [Example 10, a mixture of rac-N-{(3R)-1-[(1R,2R)-2-(2′,4′-difluoro[1,1′-biphenyl]-2-yl)cyclopropane-1-carbonyl]pyrrolidin-3-yl}methanesulfonamide and rac-N-{(3S)-1-[(1R,2R)-2-(2′,4′-difluoro[1,1′-biphenyl]-2-yl)cyclopropane-1-carbonyl]pyrrolidin-3-yl}methanesulfonamide]
100 | CN(C)S(=O)(=O)NC1COCCN(C(=O)[C@@H]2C[C@H]2c2ccccc2-c2c(F)cccc2F)C1 (stereo partly drawn) [Example 295, N′-{(6S)-4-[(1R,2R)-2-(2′,6′-difluoro[1,1′-biphenyl]-2-yl)cyclopropane-1-carbonyl]-1,4-oxazepan-6-yl}-N,N-dimethylsulfuric diamide, or N′-{(6R)-4-[(1R,2R)-2-(2′,6′-difluoro[1,1′-biphenyl]-2-yl)cyclopropane-1-carbonyl]-1,4-oxazepan-6-yl}-N,N-dimethylsulfuric diamide]
104 | CN(C)S(=O)(=O)NCC1CCN1C(=O)C1CC1c1ccccc1-c1c(F)cccc1F (stereo not drawn) [Example 250, N′-({1-[2-(2′,6′-difluoro[1,1′-biphenyl]-2-yl)cyclopropane-1-carbonyl]azetidin-2-yl}methyl)-N,N-dimethylsulfuric diamide optical isomer]
102 | CS(=O)(=O)NC1CCN(C(=O)C2CC2c2ccccc2-c2c(F)cccc2F)C1 (racemic) [Example 4, a mixture of rac-N-{(3R)-1-[(1R,2R)-2-(2′,6′-difluoro[1,1′-biphenyl]-2-yl)cyclopropane-1-carbonyl]pyrrolidin-3-yl}methanesulfonamide and rac-N-{(3S)-1-[(1R,2R)-2-(2′,6′-difluoro[1,1′-biphenyl]-2-yl)cyclopropane-1-carbonyl]pyrrolidin-3-yl}methanesulfonamide]
96 | CO[C@@H]1CN(C(=O)[C@@H]2C[C@H]2c2ccccc2-c2c(F)cccc2F)C[C@H]1NS(C)(=O)=O [Example 323, N-{(3R,4R)-1-[(1R,2R)-2-(2′,6′-difluoro[1,1′-biphenyl]-2-yl)cyclopropane-1-carbonyl]-4-methoxypyrrolidin-3-yl}methanesulfonamide]
100 | CS(=O)(=O)NC[C@@H]1CN(C(=O)[C@@H]2C[C@H]2c2ccccc2-c2c(F)cccc2F)CCO1 [Example 283, N-({(2S)-4-[(1R,2R)-2-(2′,6′-difluoro[1,1′-biphenyl]-2-yl)cyclopropane-1-carbonyl]morpholin-2-yl}methyl)methanesulfonamide]
97 | CCS(=O)(=O)N[C@H]1CCCN(C(=O)C2CC2c2ccccc2-c2c(F)cccc2F)C1 (stereo partly drawn) [Example 239, N-{(3S)-1-[(1R,2R)-2-(2′,6′-difluoro[1,1′-biphenyl]-2-yl)cyclopropane-1-carbonyl]piperidin-3-yl}ethanesulfonamide, or N-{(3S)-1-[(1S,2S)-2-(2′,6′-difluoro[1,1′-biphenyl]-2-cyclopropane-1-carbonyl]piperidin-3-yl}ethanesulfonamide]
96 | C[C@@H]1CN(C(=O)[C@@H]2C[C@@]2(F)c2ccccc2-c2c(F)cccc2F)[C@H]1CNS(C)(=O)=O [Example 357, N-({(2R,3R)-1-[(1S,2S)-2-(2′,6′-difluoro[1,1′-biphenyl]-2-yl)-2-fluorocyclopropane-1-carbonyl]-3-methylazetidin-2-yl}methyl)methanesulfonamide]
83 | CS(=O)(=O)NC[C@@H]1CCN1C(=O)[C@@H]1C[C@H]1c1ccccc1-c1c(F)cc(F)cc1F [Example 403, N-({(2S)-1-[(1R,2R)-2-(2′,4′,6′-trifluoro[1,1′-biphenyl]-2-yl)cyclopropane-1-carbonyl]azetidin-2-yl}methyl)methanesulfonamide]
